Data from PubChem BioAssay AID252 (DTP/NCI, 2004).
Several values for one entry are separate records, joined by “and”; a condition that tells them apart may be missing. Equal entries are not always repeated. Toxic doses and inconclusive results are not listed.

Tested on: BDF1 mice, intracerebral L1210 leukemia, survival T/C
Experiment: NCI In Vivo Anticancer Drug Screen. Data for tumor model L1210 Leukemia (intracerebral) in B6D2F1 (BDF1) mice
Details: higher = longer survival
Description: The antitumor activity of compounds was measured in mice bearing transplantable tumors. Survival or tumor size were measured and the results are expressed as the measurement made in the treated group (T) divided by the measurement made in the vehicle treated control group (C). The tumor model used in this assay is L1210 Leukemia (intracerebral) in B6D2F1 (BDF1) mice

`OCCOCCN1CCN(CCCN2c3ccccc3Sc3ccc(C(F)(F)F)cc32)CC1` was tested, and the T/C (endpoint: mean survival time, dose: 18.7 mg/kg/injection, schedule: Q04DX003 (ip), vehicle: saline) was 106 % of control, the T/C (endpoint: mean survival time, dose: 37.5 mg/kg/injection, schedule: Q04DX003 (ip), vehicle: saline) was 106 % of control and the T/C (endpoint: mean survival time, dose: 75.0 mg/kg/injection, schedule: Q04DX003 (ip), vehicle: saline) was 106 % of control.
For `Cc1c(O)ccc(=O)n1O`, the T/C (endpoint: mean survival time, dose: 49.0 mg/kg/injection, schedule: Q01DX Z (ip), vehicle: other) was 98 % of control, the T/C (endpoint: mean survival time, dose: 73.0 mg/kg/injection, schedule: Q01DX Z (ip), vehicle: other) was 96 % of control and the T/C (endpoint: mean survival time, dose: 110.0 mg/kg/injection, schedule: Q01DX Z (ip), vehicle: other) was 93 % of control. The T/C (endpoint: mean survival time, dose: 165.0 mg/kg/injection, schedule: Q01DX Z (ip), vehicle: other) was 110 % of control and the T/C (endpoint: mean survival time, dose: 247.0 mg/kg/injection, schedule: Q01DX Z (ip), vehicle: other) was 92 % of control.
For `C[C@H](CN1CC(=O)NC(=O)C1)N1CC(=O)NC(=O)C1`, the T/C (endpoint: median survival time, dose: 8.0 mg/kg/injection, schedule: Q01DX009 (ip), vehicle: water) was 107 % of control, the T/C (endpoint: median survival time, dose: 16.0 mg/kg/injection, schedule: Q01DX009 (ip), vehicle: water) was 115 % of control and 116 % of control and the T/C (endpoint: median survival time, dose: 32.0 mg/kg/injection, schedule: Q01DX009 (ip), vehicle: water) was 124 % of control. For the same molecule, the T/C (endpoint: median survival time, dose: 64.0 mg/kg/injection, schedule: Q01DX009 (ip), vehicle: water) was 123 % of control and the T/C (endpoint: median survival time, dose: 256.0 mg/kg/injection, schedule: Q01DX009 (ip), vehicle: water) was 109 % of control and 95 % of control.
For `O=C1C(NC(=O)C2CCCCC2)=C(N2CC2)C(=O)C(NC(=O)C2CCCCC2)=C1N1CC1`, the T/C (endpoint: mean survival time, dose: 25.0 mg/kg/injection, schedule: Q01DX009 (ip), vehicle: Klucel (hydroxypropylcellulose) (HPC)) was 111 % of control, the T/C (endpoint: mean survival time, dose: 50.0 mg/kg/injection, schedule: Q01DX009 (ip), vehicle: Klucel (hydroxypropylcellulose) (HPC)) was 101 % of control and 102 % of control and 241 % of control and the T/C (endpoint: mean survival time, dose: 50.0 mg/kg/injection, schedule: Q01DX Z (ip), vehicle: carboxymethylcellulose (CMC)) was 104 % of control. The T/C (endpoint: mean survival time, dose: 100.0 mg/kg/injection, schedule: Q01DX Z (ip), vehicle: carboxymethylcellulose (CMC)) was 103 % of control, the T/C (endpoint: mean survival time, dose: 200.0 mg/kg/injection, schedule: Q01DX009 (ip), vehicle: Klucel (hydroxypropylcellulose) (HPC)) was 105 % of control and 115 % of control and 119 % of control and the T/C (endpoint: mean survival time, dose: 200.0 mg/kg/injection, schedule: Q01DX Z (ip), vehicle: carboxymethylcellulose (CMC)) was 103 % of control. For the same molecule, the T/C (endpoint: mean survival time, dose: 400.0 mg/kg/injection, schedule: Q01DX009 (ip), vehicle: Klucel (hydroxypropylcellulose) (HPC)) was 119 % of control and 97 % of control, the T/C (endpoint: mean survival time, dose: 400.0 mg/kg/injection, schedule: Q01DX Z (ip), vehicle: carboxymethylcellulose (CMC)) was 116 % of control and the T/C (endpoint: mean survival time, dose: 440.0 mg/kg/injection, schedule: Q01DX001 (ip), vehicle: carboxymethylcellulose (CMC)) was 96 % of control and 98 % of control. For the same molecule, the T/C (endpoint: mean survival time, dose: 670.0 mg/kg/injection, schedule: Q01DX001 (ip), vehicle: carboxymethylcellulose (CMC)) was 104 % of control and 97 % of control, the T/C (endpoint: mean survival time, dose: 800.0 mg/kg/injection, schedule: Q01DX009 (ip), vehicle: Klucel (hydroxypropylcellulose) (HPC)) was 104 % of control and the T/C (endpoint: mean survival time, dose: 1000.0 mg/kg/injection, schedule: Q01DX001 (ip), vehicle: carboxymethylcellulose (CMC)) was 102 % of control and 103 % of control.
With `COc1cccc2c1C(=O)c1c(O)c3c(c(O)c1C2=O)C[C@@](O)(C(C)=O)C[C@@H]3OC1CC(N)C(O)C(C)O1` (stereo partly drawn) the T/C (endpoint: mean survival time, dose: 1.08 mg/kg/injection, schedule: Q04DX003 (ip), vehicle: water) was 101 % of control, the T/C (endpoint: mean survival time, dose: 1.8 mg/kg/injection, schedule: Q04DX003 (ip), vehicle: water) was 101 % of control and the T/C (endpoint: mean survival time, dose: 3.0 mg/kg/injection, schedule: Q04DX003 (ip), vehicle: water) was 97 % of control. For the same molecule, the T/C (endpoint: mean survival time, dose: 3.12 mg/kg/injection, schedule: Q01DX001 (ip), vehicle: water) was 102 % of control, the T/C (endpoint: mean survival time, dose: 5.0 mg/kg/injection, schedule: Q04DX003 (ip), vehicle: water) was 102 % of control and the T/C (endpoint: mean survival time, dose: 6.25 mg/kg/injection, schedule: Q01DX001 (ip), vehicle: water) was 97 % of control. For the same molecule, the T/C (endpoint: mean survival time, dose: 12.5 mg/kg/injection, schedule: Q01DX001 (ip), vehicle: water) was 91 % of control, the T/C (endpoint: mean survival time, dose: 25.0 mg/kg/injection, schedule: Q01DX001 (ip), vehicle: water) was 96 % of control and the T/C (endpoint: median survival time, dose: 1.08 mg/kg/injection, schedule: Q04DX003 (ip), vehicle: water) was 97 % of control. For the same molecule, the T/C (endpoint: median survival time, dose: 1.8 mg/kg/injection, schedule: Q04DX003 (ip), vehicle: water) was 96 % of control, the T/C (endpoint: median survival time, dose: 3.0 mg/kg/injection, schedule: Q04DX003 (ip), vehicle: water) was 96 % of control and the T/C (endpoint: median survival time, dose: 5.0 mg/kg/injection, schedule: Q04DX003 (ip), vehicle: water) was 96 % of control. The T/C (endpoint: median survival time, dose: 8.4 mg/kg/injection, schedule: Q04DX003 (ip), vehicle: water) was 95 % of control.
